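48-hour exposure; five concentrations; linearly interpolated endpoints. GI50 is the concentration that inhibits growth by half.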 The source made the active and inactive calls. No stated cut-off is given here; in the data, active = GI50 up to about 1.1 µM and inactive = higher.
Assays:
Experiment in all cases: growth of human tumour cells (NCI), 48 h
COLO 205 = test system: COLO 205
DU-145 = test system: DU-145
HCC 2998 = test system: HCC 2998
HCT-116 = test system: HCT-116
HT-29 = test system: HT-29
IGROV-1 = test system: IGROV-1
NCI-H460 = test system: NCI-H460
NCI-H522 = test system: NCI-H522
NCI/ADR-RES = test system: NCI/ADR-RES
OVCAR-8 = test system: OVCAR-8
SF-539 = test system: SF-539
SK-MEL-28 = test system: SK-MEL-28
SK-MEL-2 = test system: SK-MEL-2
SN12C = test system: SN12C
SNB-75 = test system: SNB-75
SR = test system: SR
SW-620 = test system: SW-620
T47D = test system: T47D
UACC-257 = test system: UACC-257
UO-31 = test system: UO-31

Measured: GI50

O=C(O)Cn1cnc2c(O)nc(Nc3ccccc3)nc21
inactive: COLO 205 > 100 µM | DU-145 > 100 µM | HCC 2998 > 100 µM | HCT-116 > 100 µM | HT-29 > 100 µM | IGROV-1 > 100 µM | NCI-H460 > 100 µM | NCI-H522 > 100 µM | NCI/ADR-RES > 100 µM | OVCAR-8 > 100 µM | SF-539 > 100 µM | SK-MEL-28 > 100 µM | SK-MEL-2 > 100 µM | SN12C > 100 µM | SNB-75 > 100 µM | SR > 100 µM | SW-620 > 100 µM | T47D > 100 µM | UACC-257 > 100 µM

O=[N+]([O-])c1cccnc1-n1cnc2ccccc21
inactive: COLO 205 > 100 µM | DU-145 > 100 µM | HCC 2998 > 100 µM | HCT-116 > 100 µM | HT-29 > 100 µM | IGROV-1 > 100 µM | NCI-H460 > 100 µM | NCI/ADR-RES > 100 µM | OVCAR-8 > 100 µM | SF-539 > 100 µM | SK-MEL-28 > 100 µM | SK-MEL-2 > 100 µM | SNB-75 > 100 µM | SR > 100 µM | SW-620 > 100 µM | T47D > 100 µM | UACC-257 > 100 µM

CCCCNC(=S)Nc1nc(C(=O)NNC(=S)NCC)cs1
inactive: COLO 205 62.5 µM | DU-145 73.5 µM | HCC 2998 > 100 µM | HCT-116 53.1 µM | HT-29 53.8 µM | IGROV-1 78.5 µM | NCI-H522 > 100 µM | NCI/ADR-RES 26.5 µM | OVCAR-8 > 100 µM | SF-539 73.5 µM | SK-MEL-2 > 100 µM | SN12C 56.8 µM | SNB-75 > 100 µM | SR 6.73 µM | SW-620 97.9 µM | T47D 16.7 µM | UACC-257 > 100 µM | UO-31 31.6 µM

N#Cc1c(N2CCCC2)nsc1Nc1ccccc1
inactive: COLO 205 > 100 µM | DU-145 > 100 µM | HCC 2998 > 100 µM | HCT-116 > 100 µM | HT-29 > 100 µM | IGROV-1 > 100 µM | NCI-H460 > 100 µM | NCI/ADR-RES > 100 µM | OVCAR-8 > 100 µM | SF-539 > 100 µM | SK-MEL-28 > 100 µM | SK-MEL-2 > 100 µM | SN12C > 100 µM | SNB-75 > 100 µM | SR > 100 µM | SW-620 > 100 µM | T47D > 100 µM | UACC-257 > 100 µM | UO-31 > 100 µM

C=C(C)COC(=O)COCC(=O)OCC(=C)C
inactive: COLO 205 > 100 µM | DU-145 > 100 µM | HCC 2998 > 100 µM | HCT-116 > 100 µM | HT-29 > 100 µM | IGROV-1 > 100 µM | NCI-H460 > 100 µM | NCI/ADR-RES > 100 µM | OVCAR-8 > 100 µM | SK-MEL-28 > 100 µM | SN12C > 100 µM | SNB-75 > 100 µM | SR > 100 µM | SW-620 > 100 µM | T47D > 100 µM | UACC-257 > 100 µM | UO-31 > 100 µM

COC1(C(C)(C)C)C=C(C(C)(C)C)P(=O)(O)O1 (centres undefined)
inactive: COLO 205 > 100 µM | DU-145 > 100 µM | HCC 2998 15.7 µM | HCT-116 > 100 µM | HT-29 > 100 µM | IGROV-1 > 100 µM | NCI-H460 > 100 µM | NCI-H522 > 100 µM | NCI/ADR-RES > 100 µM | OVCAR-8 > 100 µM | SF-539 > 100 µM | SK-MEL-28 > 100 µM | SK-MEL-2 > 100 µM | SN12C > 100 µM | SNB-75 > 100 µM | SR > 100 µM | SW-620 > 100 µM | T47D 1.36 µM | UACC-257 > 100 µM

COc1ccc2c3c([nH]c2c1)CCN(Cc1ccccc1)C3
inactive: COLO 205 18.7 µM | DU-145 > 100 µM | HCC 2998 19.1 µM | HCT-116 24 µM | HT-29 27.2 µM | IGROV-1 73.6 µM | NCI-H460 17 µM | NCI/ADR-RES 31.5 µM | OVCAR-8 48.3 µM | SF-539 16.1 µM | SK-MEL-28 18.8 µM | SN12C 34 µM | SNB-75 37.3 µM | SR 17.4 µM | SW-620 23.2 µM | T47D 19.4 µM | UACC-257 19.6 µM | UO-31 12.4 µM

O=c1nc(N2CCN(c3ccccc3)CC2)ccn1C1OC(CO)C(O)C1O (centres undefined)
inactive: COLO 205 97.3 µM | DU-145 > 100 µM | HCC 2998 35.9 µM | HCT-116 56 µM | HT-29 49.2 µM | IGROV-1 60.5 µM | NCI-H460 > 100 µM | NCI-H522 52.8 µM | NCI/ADR-RES > 100 µM | OVCAR-8 55.7 µM | SF-539 > 100 µM | SK-MEL-28 > 100 µM | SK-MEL-2 > 100 µM | SN12C > 100 µM | SR 28.4 µM | SW-620 82 µM | T47D 22.5 µM | UACC-257 45.1 µM | UO-31 > 100 µM

O=C(Cc1ccc(Cl)c(Cl)c1)NCC1(N2CCCCC2)CCCCC1
inactive: DU-145 61 µM | HCC 2998 17 µM | HCT-116 40.6 µM | HT-29 26.1 µM | IGROV-1 > 100 µM | NCI-H460 36.8 µM | NCI-H522 38 µM | NCI/ADR-RES 93.5 µM | OVCAR-8 97.3 µM | SK-MEL-2 46.1 µM | SN12C 66.8 µM | SR 35.5 µM | SW-620 54.6 µM | T47D 21.1 µM | UACC-257 17.8 µM | UO-31 27.1 µM

Cc1ccc(S(=O)(=O)CNC(=O)C(O)(O)C(F)(F)F)cc1
inactive: COLO 205 > 100 µM | DU-145 > 100 µM | HCC 2998 > 100 µM | HCT-116 > 100 µM | HT-29 > 100 µM | IGROV-1 > 100 µM | NCI-H460 > 100 µM | NCI-H522 > 100 µM | NCI/ADR-RES > 100 µM | OVCAR-8 > 100 µM | SF-539 > 100 µM | SK-MEL-28 > 100 µM | SK-MEL-2 > 100 µM | SN12C > 100 µM | SR > 100 µM | SW-620 > 100 µM | T47D > 100 µM | UACC-257 > 100 µM | UO-31 > 100 µM

Cc1c/c(=N\c2ccc3c(c2)c(N)cc(C)[n+]3C)nc(N)n1C
inactive: COLO 205 > 100 µM | DU-145 > 100 µM | HCT-116 > 100 µM | HT-29 > 100 µM | IGROV-1 > 100 µM | NCI-H460 > 100 µM | NCI-H522 > 100 µM | NCI/ADR-RES > 100 µM | OVCAR-8 86.3 µM | SF-539 > 100 µM | SK-MEL-28 > 100 µM | SK-MEL-2 > 100 µM | SN12C 92.7 µM | SNB-75 > 100 µM | SR > 100 µM | SW-620 > 100 µM | T47D > 100 µM | UACC-257 > 100 µM | UO-31 > 100 µM

O=C(CSCC(=O)N/N=C\c1cccc(Br)c1)N/N=C\c1cccc(Br)c1
inactive: COLO 205 34 µM | DU-145 21.8 µM | HCT-116 14.8 µM | HT-29 23.1 µM | IGROV-1 17.1 µM | NCI-H460 25.2 µM | NCI-H522 17 µM | NCI/ADR-RES 15.9 µM | OVCAR-8 15.3 µM | SF-539 23.6 µM | SK-MEL-28 18.8 µM | SK-MEL-2 22.9 µM | SN12C 16.2 µM | SNB-75 18.1 µM | SR 27.2 µM | SW-620 27.8 µM | T47D 18.1 µM | UACC-257 14.1 µM | UO-31 15.5 µM

CC1(C)OCC2(CO1)CSCCCSCC1(COC(C)(C)OC1)CSCCCSC2
inactive: COLO 205 > 100 µM | DU-145 > 100 µM | HCC 2998 > 100 µM | HCT-116 > 100 µM | HT-29 > 100 µM | IGROV-1 > 100 µM | NCI-H460 > 100 µM | NCI-H522 > 100 µM | NCI/ADR-RES > 100 µM | OVCAR-8 > 100 µM | SF-539 > 100 µM | SK-MEL-28 > 100 µM | SN12C > 100 µM | SNB-75 90.6 µM | SR > 100 µM | SW-620 > 100 µM | T47D > 100 µM | UACC-257 > 100 µM | UO-31 > 100 µM

CCOC(=O)C1C(=O)CC(O)(OCC)C(C(=O)OCC)C1c1ccc(OC)cc1 (centres undefined)
inactive: COLO 205 > 100 µM | DU-145 > 100 µM | HCC 2998 > 100 µM | HCT-116 > 100 µM | HT-29 > 100 µM | IGROV-1 > 100 µM | NCI-H460 > 100 µM | NCI-H522 > 100 µM | NCI/ADR-RES > 100 µM | OVCAR-8 > 100 µM | SK-MEL-28 > 100 µM | SK-MEL-2 > 100 µM | SN12C > 100 µM | SNB-75 > 100 µM | SR > 100 µM | SW-620 > 100 µM | T47D > 100 µM | UACC-257 > 100 µM | UO-31 > 100 µM

C[C@@H](NC(C#N)c1ccco1)c1ccccc1 (some centres undefined)
inactive: DU-145 > 100 µM | HCC 2998 32.7 µM | HCT-116 > 100 µM | HT-29 > 100 µM | IGROV-1 > 100 µM | NCI-H460 > 100 µM | NCI/ADR-RES > 100 µM | OVCAR-8 > 100 µM | SF-539 > 100 µM | SK-MEL-28 > 100 µM | SN12C > 100 µM | SNB-75 > 100 µM | SR > 100 µM | SW-620 > 100 µM | T47D > 100 µM | UACC-257 > 100 µM | UO-31 > 100 µM

— ChEMBL document CHEMBL1201862, “PubChem BioAssay data set” (2004)
